Test results taken from patent US12357561B2, “Compositions and uses of alpha-adrenergic agents” (LEVATION PHARMA LTD., priority 2016, dated 2025).

Test system: New Zealand rabbits
Assay: Ocular observations after injection of oxymetazoline solutions into the post-septal fat pad of rabbits
Type: in vivo, rabbit
Details: for Palpebral Reflex / Threat Test: 100 μl post-septal fat pad injection; for Palpebral Reflex / Threat Test / eyelid closure (notes): Right Eye
Protocol: Rabbits without ocular pathology received oxymetazoline solutions by ocular injection. The evolution was tested postoperative, 1, 2, 3, 7, 10, and 14 day after oxymetazoline solutions administration. Eyelids were analyzed by histology at the end of the experiment. Endpoints included inflammation, fibrosis, pre- and post-septal fat, status of levator muscle and Müller's muscle, presence of vascular injury or necrosis or ischemic injury to eyelid tissues.
• Animals: female New Zealand rabbits (2.5-3 kg) • Sedation: atropine sulfate and midazolam IV (ear vein) • Anesthesia: induction with Propofol 1% (10 mg/kg) by ear vein • Maintenance with isoflurane (inhalant anesthesia) • Oxymetazoline solutions • Slit lamp Method Baseline Measures (1st Phase) • I. Animals (n=2); 2.5-3 kg New Zealand rabbit • II. Without sedation and anesthesia • III. Photographic record with a ruler (to serve as a standard measure of distance). Three sets of photos per measurements taken in dim lighting to keep rabbits from squinting • IV. 50 μl of 10% phenylephrine was administered via topical into the right eye (RE) • V. Photographic record with a ruler. Three sets of photos per measurements. After 20-30 minutes post-dose. • VI. Animals returned to animal housing. Test Article (Oxymetazoline Solutions) (2nd Phase) • I. Animals (n=3/each group); 2.5-3 kg New Zealand rabbit • II. Photographic record with a ruler (to serve as a standard measure of distance). Three sets of photos per measurements taken in dim lighting to keep rabbits from squinting. • III. Sedation with atropine sulfate and midazolam • IV. Induction with Propofol • V. Maintenance with isoflurane • VI. Ocular injection of oxymetazoline solutions or PBS (phosphate-buffered saline) • a. Group A: oxymetazoline 1 mg/ml in PBS (RE) and PBS (LE) • b. Group B: oxymetazoline 3 mg/ml in PBS (RE) and PBS (LE) • c. Group C: oxymetazoline 10 mg/ml in PBS (RE) and PBS (LE) All animals were administered 100 μI (0.1 ml) of the oxymetazoline solution (RE) or PBS vehicle control (LE) via an injection into the post-septal fat pad, adjacent to Müller's muscle of both eyelids on Day 0. For this injection, a 30G needle was used; test article was administered at least 4 mm away from the site of the needle entry to prevent reflux of fluid through the hole. • VII. Follow-up. • VIII. Euthanized animals 14 days after the injection of oxymetazoline solutions to process the eyelids tissues. • a. Harvest both eyelids from each animal and store in formalin • b. Histology (H/E staining) Follow-Up Follow-up included: • Eyelid retraction/ptosis measurements & digital photos with eyes directly facing camera and a ruler in the frame of the photograph to standardize distances. Three sets of photos per measurement taken in dim lighting to keep rabbits from squinting. • Slit-lamp biomicroscopy • Daily general health observations • Body weights prior to dosing and prior to sacrifice Study Variables • I. Palpebral fissure distance • II. Margin reflex distance 1 Results • Group A (1 mg/ml) • Notes: • pre-injection.
Group B (3 mg/ml) Notes: • pre-injection.

[1] = Group A 1 mg/ml in PBS, Day 2, animals #1/#2/#3
[2] = Group A 1 mg/ml in PBS, Day 3 morning, animals #1/#2/#3
[3] = Group A 1 mg/ml, Day 2 (3 h post-injection)
[4] = Group B 3 mg/ml in PBS, Day 2, animals #1/#2
[5] = Group B 3 mg/ml in PBS, Day 3 afternoon, animals #1/#2
[6] = Group B 3 mg/ml in PBS, Day 3 morning, animals #1/#2
[7] = Group B 3 mg/ml in PBS, Day 4 morning, animals #1/#2
[8] = Group B 3 mg/ml, Day 2 (3 h post-injection)

Palpebral Reflex [1]: Abolished/Abolished/
Threat Test [1]: Abolished/Abolished/
Threat Test (Group A 1 mg/ml in PBS, Day 3 afternoon, animals #1/#2/#3): Delayed/Delayed/Delayed
Palpebral Reflex [2]: Delayed/Delayed/Delayed
Threat Test [2]: Abolished/Abolished/
Threat Test (Group A 1 mg/ml in PBS, Day 4 afternoon, animals #1/#2/#3): Delayed/Delayed/Delayed
Threat Test (Group A 1 mg/ml in PBS, Day 4 morning, animals #1/#2/#3): Delayed/Delayed/Delayed
ocular discomfort (notes) [3]: Animal show ocular discomfort
Palpebral Reflex [4]: Abolished/Abolished
Threat Test [4]: Abolished/Abolished
Palpebral Reflex [5]: Delayed/Delayed
Threat Test [5]: Abolished/Abolished
Palpebral Reflex [6]: Delayed/Delayed
Threat Test [6]: Abolished/Abolished
Threat Test (Group B 3 mg/ml in PBS, Day 4 afternoon, animals #1/#2): Delayed/Delayed
Palpebral Reflex [7]: Delayed/Delayed
Threat Test [7]: Delayed/Delayed
Threat Test (Group B 3 mg/ml in PBS, Day 5, animals #1/#2): Delayed/
ocular discomfort (notes) [8]: Animal show ocular discomfort
Structure (SMILES): Cc1cc(C(C)(C)C)c(O)c(C)c1CC1=NCCN1 [oxymetazoline]
eyelid closure (notes) [3]: pressure applied to close eyelid
eyelid closure (notes) (Group A 1 mg/ml, Day 3 morning): pressure applied to close eyelid
eyelid closure (notes) [8]: pressure applied to close eyelid
eyelid closure (notes) (Group B 3 mg/ml, Day 3 afternoon): pressure applied to close eyelid
eyelid closure (notes) (Group B 3 mg/ml, Day 3 morning): pressure applied to close eyelid
eyelid closure (notes) (Group B 3 mg/ml, Day 4 morning): pressure applied to close eyelid
